Experimental data taken from patent US20050004011A1, “Compositions and methods for treating bacterial infections with protein-dalbavancin complexes” (priority 2002, published 2005).

Legend:
[1] = system: skin and soft tissue infections (SSTI); test: Phase II trial in deep skin and soft tissue infections: clinical response; format: in vivo, human
Description: This randomized, controlled study evaluated the safety and efficacy of two dose regimens of dalbavancin.
There were 62 patients randomized into the study; all received at least one dose of study medication. Four study populations were evaluated for safety and efficacy and were defined as follows: The intent-to-treat (ITT) population included all patients who received at least one dose of study drug (all randomized study subjects).
The effectiveness of the three treatment regimens was determined by assessing the patients' clinical response and the documented or presumed microbiological responses. The primary efficacy endpoint was clinical response at the follow-up visit for the clinically evaluable population. Clinical response, for both EOT and FU visits, was categorized as success (cure or improvement) or failure (including indeterminate results). Patients classified as successes must not have received additional systemic antibacterial treatment for their infection. Failure was defined as persistence of one or more local or systemic signs and symptoms of SSTI such that treatment with new or additional systemic antibacterial agents was required for the SSTI.

[2] = Safety assessments in healthy subjects; format: in vivo, human; conditions: single 1000 mg IV
Description: Adverse events were recorded and assessed for severity and relationship to study drug. Laboratory data (chemistry panel, CBC with differential, urinalysis) were collected and assessed for changes from baseline and out-of-range values. ECG, physical examination, and vital signs were obtained, and changes from baseline were assessed.

human albumin = human albumin (Homo sapiens, UniProt P02768); test: Protein binding by isothermal titration microcalorimetry
human albumin, sequence (P02768 25-609): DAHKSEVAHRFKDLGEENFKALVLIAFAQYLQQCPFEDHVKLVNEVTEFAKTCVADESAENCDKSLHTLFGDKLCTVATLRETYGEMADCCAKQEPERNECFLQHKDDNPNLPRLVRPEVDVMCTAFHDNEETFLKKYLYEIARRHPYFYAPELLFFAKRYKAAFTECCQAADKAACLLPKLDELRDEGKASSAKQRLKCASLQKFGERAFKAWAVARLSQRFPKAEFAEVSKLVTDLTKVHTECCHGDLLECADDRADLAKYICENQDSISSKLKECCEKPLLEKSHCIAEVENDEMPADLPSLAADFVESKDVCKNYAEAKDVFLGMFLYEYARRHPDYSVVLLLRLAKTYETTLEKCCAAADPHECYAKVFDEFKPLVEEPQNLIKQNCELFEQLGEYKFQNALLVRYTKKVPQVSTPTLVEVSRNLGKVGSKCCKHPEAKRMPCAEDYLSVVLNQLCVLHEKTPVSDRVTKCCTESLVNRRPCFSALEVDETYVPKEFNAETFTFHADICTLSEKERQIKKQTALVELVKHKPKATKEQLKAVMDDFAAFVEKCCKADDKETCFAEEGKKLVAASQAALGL
Description: Integrated heat effects, after correction for heats of dilution, were analyzed by non-linear regression using a simple single-site binding model with the standard Microcal ORIGIN software package. Raw data (μcal/sec) for each injection were integrated to give the total heat effect per addition, then divided by amount of injectant to give kcal/mole of injectant. The same integration was applied for control dilution effects, and this was subtracted from the actual titration data. This provided a differential of the binding curve in which the extent of binding is proportional to the total heat liberated (or absorbed). This was then analyzed by non-linear regression methods in terms of various standard binding models.

Rat mass balance study = format: in vivo, Sprague-Dawley rats
Description: Mass balance studies were conducted to determine the excretion pattern of dalbavancin following a single intravenous (IV) infusion of dalbavancin in male rats.
Water and methanol cage washes were also collected.

[3] = Rat quantitative tissue distribution (QTD) study; format: in vivo, Sprague-Dawley rats
Description: Quantitative tissue distribution studies were conducted to assess the tissue distribution of dalbavancin following a single IV infusion of dalbavancin to male rats.
All samples were analyzed by LSC.

Work on CN[C@H]1C(=O)N[C@@H]2Cc3ccc(cc3)Oc3cc4cc(c3O[C@@H]3O[C@H](C(=O)O)[C@@H](O)[C@H](O)[C@H]3NC(=O)CCCCCCCCC(C)C)Oc3ccc(cc3Cl)[C@@H](O)[C@@H]3NC(=O)[C@H](NC(=O)[C@@H]4NC(=O)[C@@H](NC2=O)c2cc(cc(O)c2Cl)Oc2cc1ccc2O)c1ccc(O)c(c1)-c1c(O[C@H]2O[C@H](CO)[C@@H](O)[C@H](O)[C@@H]2O)cc(O)cc1[C@@H](C(=O)NCCCN(C)C)NC3=O [Dalbavancin] yielded a Clinical success rate ([1]; MITT at FU, patients with MRSA, single-dose) of 50%, a Clinical success rate ([1]; MITT at FU, patients with MRSA, two-dose) of 80% and a Clinical success rate ([1]; subanalysis: deep or complicated SSTI at baseline, single-dose) of 58.3%. The Clinical success rate ([1]; subanalysis: deep or complicated SSTI at baseline, two-dose) was 93.8%, the “Subject deaths or serious adverse events” value [2] was “No subject deaths or serious adverse events” and the Tolerability [2] was “well-tolerated”. For the same molecule, the “Volunteers reporting AEs possibly related to study medication” value ([2]; six subjects) was “Three”, the “binding stoichiometry modeling (drug:protein)” value (human albumin) was “two dalbavancin molecules are bound to one molecule of protein” and the Calculated percent binding (human albumin; antibiotic 500 μM, human serum albumin 6×10^−4 M) was 98.0%. For the same molecule, the “N (binding stoichiometry, protein to dalbavancin)” value (human albumin; in all cases (all proteins)) was under 1, the “dose remaining in the carcass” value (Rat mass balance study; 70 days post dose) was 4.5% and the “plasma t1/2” value (Rat mass balance study; rat) was “approximately 1 week”. For the same molecule, the “share of excreted radioactivity eliminated in feces” value (Rat mass balance study; single IV 20 mg/kg, male rats) was “⅓”, the “share of excreted radioactivity eliminated in urine” value (Rat mass balance study; single IV 20 mg/kg, male rats) was “⅔” and the “administered radioactivity eliminated in urine and feces” value (Rat mass balance study; within the first week) was “Approximately half”. For the same molecule, the “dose recovered in the bile” value ([3]; bile duct cannulated rats, over 384 h after the dose) was about 11%, the “Concentrations of radioactivity in the CNS” value ([3]; healthy animal model) was “low but detectable” and the “time by which all tissues had quantifiable drug-derived radioactivity” value ([3]; post-infusion, 20 mg/kg IV) was at most 12 h. The “accumulation in tissue, organ or blood cellular component” value ([3]; rat, in vivo) was “did not accumulate”, the “skin concentrations of drug-derived radioactivity” value ([3]; relative to plasma) was “as high as or higher than in plasma” and the “Blood to plasma ratio of drug-derived radioactivity” value ([3]; relatively constant over time) was under 1.
